The NIST ThermoML archive (doi:10.1021/acs.jced.6b00273)

Experiment: mn = molality of the nth substance listed, in mol/kg
Conditions: 101.33 kPa, Liquid; for viscosity: Capillary tube (Ostwald / Ubbelohde) method; for mass density: Vibrating tube method

Cn1c(=O)c2c(ncn2C)n(C)c1=O [caffeine] + O
Conditions	mass density, 288.15 K [kg/m3]	mass density, 298.15 K [kg/m3]	mass density, 308.15 K [kg/m3]	mass density, 318.15 K [kg/m3]	viscosity, 288.15 K [mPa·s]	viscosity, 298.15 K [mPa·s]	viscosity, 308.15 K [mPa·s]	viscosity, 318.15 K [mPa·s]
m1 = 0.00508	–	–	–	–	1.14	0.895	0.723	0.599
m1 = 0.0051	999.404	997.304	994.303	990.464	–	–	–	–
m1 = 0.00693	–	–	–	–	1.142	0.896	0.724	0.6
m1 = 0.00695	999.505	997.399	994.39	990.545	–	–	–	–
m1 = 0.009	–	–	–	–	1.144	0.896	0.724	0.601
m1 = 0.00902	999.619	997.504	994.488	990.637	–	–	–	–
m1 = 0.01986	–	–	–	–	1.147	0.9	0.728	0.606
m1 = 0.01993	1000.22	998.06	995.013	991.121	–	–	–	–
m1 = 0.02978	–	–	–	–	1.152	0.905	0.732	0.609
m1 = 0.02992	1000.77	998.576	995.497	991.571	–	–	–	–
m1 = 0.03531	1001.07	998.853	995.759	991.812	–	–	–	–
m1 = 0.03533	–	–	–	–	1.154	0.907	0.735	0.611
m1 = 0.03983	–	–	–	–	1.156	0.91	0.737	0.613
m1 = 0.04008	1001.34	999.101	996.001	992.025	–	–	–	–
m1 = 0.04953	–	–	–	–	1.162	0.914	0.741	0.617
m1 = 0.04992	1001.89	999.619	996.484	992.483	–	–	–	–

Cn1c(=O)c2[nH]cnc2n(C)c1=O [3,7-dihydro-1,3-dimethyl-1H-purine-2,6-dione] + O
Conditions	mass density, 288.15 K [kg/m3]	mass density, 298.15 K [kg/m3]	mass density, 308.15 K [kg/m3]	mass density, 318.15 K [kg/m3]	viscosity, 288.15 K [mPa·s]	viscosity, 298.15 K [mPa·s]	viscosity, 308.15 K [mPa·s]	viscosity, 318.15 K [mPa·s]
m1 = 0.00208	999.241	997.153	994.165	990.343	–	–	–	–
m1 = 0.00213	–	–	–	–	1.139	0.891	0.719	0.597
m1 = 0.00284	–	–	–	–	1.139	0.892	0.72	0.597
m1 = 0.00285	999.283	997.192	994.204	990.379	–	–	–	–
m1 = 0.00378	999.333	997.239	994.25	990.423	–	–	–	–
m1 = 0.00394	–	–	–	–	1.14	0.892	0.72	0.598
m1 = 0.00479	999.388	997.291	994.3	990.472	–	–	–	–
m1 = 0.00519	–	–	–	–	1.14	0.892	0.721	0.598
m1 = 0.00578	999.443	997.341	994.35	990.519	–	–	–	–
m1 = 0.00617	–	–	–	–	1.141	0.893	0.722	0.599
m1 = 0.00689	–	–	–	–	1.141	0.893	0.722	0.599
m1 = 0.00699	999.509	997.404	994.41	990.578	–	–	–	–
m1 = 0.00776	999.551	997.443	994.448	990.614	–	–	–	–
m1 = 0.00819	–	–	–	–	1.142	0.894	0.723	0.599
m1 = 0.00921	–	–	–	–	1.142	0.895	0.723	0.6
m1 = 0.00934	999.638	997.526	994.528	990.691	–	–	–	–
m1 = 0.00986	999.667	997.554	994.554	990.716	–	–	–	–
